# According to patent publication US12264156B2, “Compounds and pharmaceutical compositions thereof for the treatment of diseases” (GALAPAGOS NV, priority 2018, dated 2025):
# Key:
# Assay type in all cases: biochemical
# Settings in all cases: ADP-Glo SIK kinase assay
# [1] = biological target: T1, SIK2 (Homo sapiens, UniProt Q9H0K1); experiment: ADP-Glo kinase assay, SIK2
# T1 construct: purchased ThermoFisher Scientific PV4792
# Method in brief: (§1)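 ADP-Glo luminescent assay of ADP formed by SIK2 or SIK3 with substrate after ATP addition, 120 min at RT. Remaining ATP depleted 40 min, then ADP converted to ATP and read by luciferase luminescence after 30 min. Controls: 1% DMSO and 10 μM staurosporine (final).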
# [2] = biological target: T2, SIK3 (Homo sapiens, UniProt Q9Y2K2); experiment: ADP-Glo kinase assay, SIK3
# T2 construct: purchased SignalChem S12-11G-100
# Method in brief: as §1
# [3] = biological target: T3, SIK1 (Homo sapiens, UniProt P57059); experiment: ADP-Glo kinase assay, SIK1
# T3 construct: purchased Carna Biosciences 02-131
# Method in brief: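 Wells with 1% DMSO or 10 μM staurosporine (final) define the control window. The kinase reaction with substrate and ATP runs 120 min at RT, followed by ADP-Glo detection: ATP depletion (40 min) and ADP-derived luminescence (30 min).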
# T3 sequence (P57059 whole entry): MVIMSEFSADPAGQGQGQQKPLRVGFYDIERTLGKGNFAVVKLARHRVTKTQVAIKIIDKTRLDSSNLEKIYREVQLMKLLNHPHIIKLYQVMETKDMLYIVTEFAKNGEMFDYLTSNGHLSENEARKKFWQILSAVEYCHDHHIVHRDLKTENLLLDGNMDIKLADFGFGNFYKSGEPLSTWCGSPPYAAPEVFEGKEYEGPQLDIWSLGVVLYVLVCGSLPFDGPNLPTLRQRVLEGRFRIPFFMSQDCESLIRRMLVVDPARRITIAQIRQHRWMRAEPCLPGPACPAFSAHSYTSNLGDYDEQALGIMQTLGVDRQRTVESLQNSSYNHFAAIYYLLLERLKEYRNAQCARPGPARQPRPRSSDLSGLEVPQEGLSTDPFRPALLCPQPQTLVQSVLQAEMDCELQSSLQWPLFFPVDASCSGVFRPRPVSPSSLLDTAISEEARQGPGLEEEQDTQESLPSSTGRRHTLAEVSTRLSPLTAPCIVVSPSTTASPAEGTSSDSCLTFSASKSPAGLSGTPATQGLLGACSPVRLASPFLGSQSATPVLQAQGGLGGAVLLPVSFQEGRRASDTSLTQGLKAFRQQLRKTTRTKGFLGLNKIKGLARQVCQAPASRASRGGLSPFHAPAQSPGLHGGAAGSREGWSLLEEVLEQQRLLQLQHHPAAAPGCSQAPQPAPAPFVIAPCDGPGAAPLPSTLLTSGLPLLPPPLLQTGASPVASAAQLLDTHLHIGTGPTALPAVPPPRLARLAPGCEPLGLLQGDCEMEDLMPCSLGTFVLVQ
# T2 sequence (Q9Y2K2 whole entry): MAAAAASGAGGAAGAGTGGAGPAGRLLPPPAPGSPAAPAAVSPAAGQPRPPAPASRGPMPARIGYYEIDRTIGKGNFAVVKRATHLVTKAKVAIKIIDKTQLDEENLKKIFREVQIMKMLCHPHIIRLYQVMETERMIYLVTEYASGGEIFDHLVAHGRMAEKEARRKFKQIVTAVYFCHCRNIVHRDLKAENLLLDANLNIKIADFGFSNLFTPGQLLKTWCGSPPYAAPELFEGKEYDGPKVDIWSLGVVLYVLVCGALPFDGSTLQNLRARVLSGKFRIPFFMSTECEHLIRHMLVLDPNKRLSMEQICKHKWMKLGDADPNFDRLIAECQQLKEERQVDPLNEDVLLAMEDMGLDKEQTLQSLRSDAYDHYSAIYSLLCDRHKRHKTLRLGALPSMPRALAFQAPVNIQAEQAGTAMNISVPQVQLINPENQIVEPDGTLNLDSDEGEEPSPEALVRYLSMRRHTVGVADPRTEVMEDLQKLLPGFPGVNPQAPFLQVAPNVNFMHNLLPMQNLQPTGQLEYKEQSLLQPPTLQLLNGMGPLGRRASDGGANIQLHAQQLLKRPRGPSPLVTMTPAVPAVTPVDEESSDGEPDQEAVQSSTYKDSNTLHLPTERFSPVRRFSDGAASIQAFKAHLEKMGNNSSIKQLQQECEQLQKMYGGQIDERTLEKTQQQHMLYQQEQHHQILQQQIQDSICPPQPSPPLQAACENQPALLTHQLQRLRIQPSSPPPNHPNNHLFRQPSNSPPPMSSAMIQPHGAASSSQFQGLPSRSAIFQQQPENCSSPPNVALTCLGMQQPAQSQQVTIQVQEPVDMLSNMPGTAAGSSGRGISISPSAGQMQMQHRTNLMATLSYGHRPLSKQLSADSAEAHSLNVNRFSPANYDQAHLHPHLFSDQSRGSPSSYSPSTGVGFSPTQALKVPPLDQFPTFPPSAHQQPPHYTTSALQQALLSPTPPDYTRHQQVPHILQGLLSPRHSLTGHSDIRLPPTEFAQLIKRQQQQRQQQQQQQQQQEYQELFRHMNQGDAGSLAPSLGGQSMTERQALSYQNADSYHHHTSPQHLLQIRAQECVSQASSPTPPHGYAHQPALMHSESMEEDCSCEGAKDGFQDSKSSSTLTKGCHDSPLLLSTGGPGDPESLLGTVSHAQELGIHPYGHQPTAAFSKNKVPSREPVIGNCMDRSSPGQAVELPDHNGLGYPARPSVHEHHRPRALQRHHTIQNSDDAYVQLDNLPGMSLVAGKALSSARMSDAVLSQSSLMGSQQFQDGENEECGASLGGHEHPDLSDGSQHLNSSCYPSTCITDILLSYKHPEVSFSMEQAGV
# T1 sequence (Q9H0K1 whole entry): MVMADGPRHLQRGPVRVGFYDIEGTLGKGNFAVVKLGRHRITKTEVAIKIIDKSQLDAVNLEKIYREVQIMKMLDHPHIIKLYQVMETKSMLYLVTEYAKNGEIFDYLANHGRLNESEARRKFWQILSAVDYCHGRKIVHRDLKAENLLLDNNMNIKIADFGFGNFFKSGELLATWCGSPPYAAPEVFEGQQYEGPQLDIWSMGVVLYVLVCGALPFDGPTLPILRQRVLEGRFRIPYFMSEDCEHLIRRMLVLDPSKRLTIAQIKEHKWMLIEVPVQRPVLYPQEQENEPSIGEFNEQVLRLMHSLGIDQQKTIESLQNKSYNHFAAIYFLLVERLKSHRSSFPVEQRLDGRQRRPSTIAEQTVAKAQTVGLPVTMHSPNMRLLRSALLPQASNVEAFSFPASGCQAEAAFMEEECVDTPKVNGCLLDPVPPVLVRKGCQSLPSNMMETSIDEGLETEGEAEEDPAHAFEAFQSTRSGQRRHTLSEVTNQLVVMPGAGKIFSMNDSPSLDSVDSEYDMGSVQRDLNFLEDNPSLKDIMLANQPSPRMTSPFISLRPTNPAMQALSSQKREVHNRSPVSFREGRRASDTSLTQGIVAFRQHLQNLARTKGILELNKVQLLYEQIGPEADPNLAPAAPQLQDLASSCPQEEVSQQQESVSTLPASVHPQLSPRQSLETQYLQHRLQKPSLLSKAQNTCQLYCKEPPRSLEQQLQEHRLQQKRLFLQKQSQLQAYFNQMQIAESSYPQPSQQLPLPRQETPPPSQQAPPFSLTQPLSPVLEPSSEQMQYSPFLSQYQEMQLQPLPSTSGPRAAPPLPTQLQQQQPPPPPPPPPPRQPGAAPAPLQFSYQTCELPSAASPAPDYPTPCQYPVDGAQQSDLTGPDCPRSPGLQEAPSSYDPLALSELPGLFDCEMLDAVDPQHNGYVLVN
IC50 [1] [nM],IC50 [2] [nM],IC50 [3] [nM],SMILES
0.01 to 10,0.01 to 10,10 to 100,"COC(=O)C1CN(CCOc2ccn3c(-c4cc(OC)c(C(=O)NC5CC5)c(OC(F)F)c4)cnc3c2)C1 [compound 393, methyl 1-[2-[3-[4-(cyclopropylcarbamoyl)-3-(difluoromethoxy)-5-methoxy-phenyl]imidazo[1,2-a]pyridin-7-yl]oxyethyl]azetidine-3-carboxylate]"
0.01 to 10,0.01 to 10,0.01 to 10,"COc1cc(-c2cnc3cc(OCC4CCN(C)CC4)ccn23)cc(OC(F)F)c1C(=O)NC1CC1 [compound 25, N-cyclopropyl-2-(difluoromethoxy)-6-methoxy-4-[7-[(1-methyl-4-piperidyl)methoxy]imidazo[1,2-a]pyridin-3-yl]benzamide]"
0.01 to 10,0.01 to 10,0.01 to 10,"COc1cc(-c2cnc3cc(OCC(C)(C)C)ccn23)cc(OC(F)F)c1C(=O)NC1CC1 [compound 66, N-cyclopropyl-2-(difluoromethoxy)-4-[7-(2,2-dimethylpropoxy)imidazo [1,2-a]pyridin-3-yl]-6-methoxy-benzamide]"
10 to 100,10 to 100,100 to 500,"COc1ccn2c(-c3cc4c(c(OC)c3)C(=O)N(CC(F)(F)F)CC4)cnc2c1 [Cpd 256, 8-methoxy-6-(7-methoxyimidazo[1,2-a]pyridin-3-yl)-2-(2,2,2-trifluoroethyl)-3,4-dihydroisoquinolin-1-one]"
10 to 100,100 to 500,100 to 500,"COc1cc(-c2cnc3cc(OCCCN4CCCCC4)ccn23)cc(OC(F)F)c1C(=O)N1CC(O)(CC#N)C1 [compound 355, 2-[1-[2-(difluoromethoxy)-6-methoxy-4-[7-[3-(1-piperidyl)propoxy]imidazo[1,2-a]pyridin-3-yl]benzoyl]-3-hydroxy-azetidin-3-yl]acetonitrile]"
0.01 to 10,0.01 to 10,0.01 to 10,"COc1cc(-c2cnc3cc(OCCCN4[C@H](C)CCC[C@@H]4C)ccn23)cc(OC(F)F)c1C(=O)NC1CC1 [compound 352, N-cyclopropyl-2-(difluoromethoxy)-4-[7-[3-[(2R,6S)-2,6-dimethyl-1-piperidyl]propoxy]imidazo [1,2-a]pyridin-3-yl]-6-methoxy-benzamide]"
0.01 to 10,0.01 to 10,10 to 100,"COc1cc(-c2cnc3cc(OCCCN4CCc5nc(C)sc5C4)ccn23)cc(OC(F)F)c1C(=O)NC1CC1 [compound 320, N-cyclopropyl-2-(difluoromethoxy)-6-methoxy-4-[7-[3-(2-methyl-6,7-dihydro-4H-thiazolo[5,4-c]pyridin-5-yl)propoxy]imidazo[1,2-a]pyridin-3-yl]benzamide]"
0.01 to 10,0.01 to 10,0.01 to 10,"COc1cc(-c2cnc3cc(OCCN4CCCC(C#N)C4)ccn23)cc(OC(F)F)c1C(=O)NC1CC1 (stereo not drawn) [compound 216, 4-[7-[2-(3-cyano-1-piperidyl)ethoxy]imidazo [1,2-a]pyridin-3-yl]-N-cyclopropyl-2-(difluoromethoxy)-6-methoxy-benzamide]"
10 to 100,0.01 to 10,100 to 500,"COc1cc(-c2cnc3cc(OC4CCC(F)(F)CC4)ccn23)cc(OC(F)F)c1C(=O)NC1CC1 [compound 77, N-cyclopropyl-4-[7-(4,4-difluorocyclohexoxy)imidazo[1,2-a]pyridin-3-yl]-2-(difluoromethoxy)-6-methoxy-benzamide]"
0.01 to 10,0.01 to 10,10 to 100,"COCCN(CCOc1ccn2c(-c3cc(OC)c(C(=O)NC4CC4)c(OC(F)F)c3)cnc2c1)CC(F)F [compound 237, N-cyclopropyl-4-[7-[2-[2,2-difluoroethyl(2-methoxyethyl)amino]ethoxy]imidazo[1,2-a]pyridin-3-yl]-2-(difluoromethoxy)-6-methoxy-benzamide]"
0.01 to 10,0.01 to 10,10 to 100,"COc1cc(-c2cnc3cc(OCC4(F)CNC4)ccn23)cc(OC(F)F)c1C(=O)NC1CC1 [compound 207, N-cyclopropyl-2-(difluoromethoxy)-4-[7-[(3-fluoroazetidin-3-yl)methoxy]imidazo[1,2-a]pyridin-3-yl]-6-methoxy-benzamide]"
0.01 to 10,0.01 to 10,10 to 100,"COc1cc(-c2cnc3cc(OCC(C)(C)OC)ccn23)cc(OC(F)F)c1C(=O)NC1CC1 [compound 3, N-cyclopropyl-2-(difluoromethoxy)-6-methoxy-4-[7-(2-methoxy-2-methyl-propoxy)imidazo[1,2-a]pyridin-3-yl]benzamide]"
0.01 to 10,0.01 to 10,10 to 100,"COc1cc(-c2cnc3cc(OCc4cn(C)cn4)ccn23)cc(OC(F)F)c1C(=O)NC1CC1 [Cpd 101, N-cyclopropyl-2-(difluoromethoxy)-6-methoxy-4-[7-[(1-methylimidazol-4-yl)methoxy]imidazo[1,2-a]pyridin-3-yl]benzamide]"
0.01 to 10,0.01 to 10,10 to 100,"COc1cc(-c2cnc3cc(OCC4CCCCC4)ccn23)cc(OC(F)F)c1C(=O)NC1CC1 [compound 69, 4-[7-(cyclohexylmethoxy)imidazo[1,2-a]pyridin-3-yl]-N-cyclopropyl-2-(difluoromethoxy)-6-methoxy-benzamide]"

# Further lines, the compound ahead of its results:
SMILES,IC50 [1] [nM],IC50 [2] [nM],IC50 [3] [nM]
"COc1cc(-c2cnc3cc(OC4CCOCC4)ccn23)cc(OC(F)F)c1C(=O)NC1CC1 [compound 1, N-cyclopropyl-2-(difluoromethoxy)-6-methoxy-4-(7-tetrahydropyran-4-yloxyimidazo[1,2-a]pyridin-3-yl)benzamide]",100 to 500,0.01 to 10,100 to 500
"COc1cc(-c2cnc3cc(OCC4(CN)CCC4)ccn23)cc(OC(F)F)c1C(=O)NC1CC1 [compound 116, 4-[7-[[1-(aminomethyl)cyclobutyl]methoxy]imidazo[1,2-a]pyridin-3-yl]-N-cyclopropyl-2-(difluoromethoxy)-6-methoxy-benzamide]",0.01 to 10,0.01 to 10,10 to 100
"COc1cc(-c2cnc3cc(OCC4CN(CCO)C4)ccn23)cc(OC(F)F)c1C(=O)NC1CC1 [Cpd 343, N-cyclopropyl-2-(difluoromethoxy)-4-[7-[[1-(2-hydroxyethyl)azetidin-3-yl]methoxy]imidazo[1,2-a]pyridin-3-yl]-6-methoxy-benzamide]",0.01 to 10,0.01 to 10,10 to 100
"COc1cc(-c2cnc3cc(OCC4CCCCN4C(C)C)ccn23)cc(OC(F)F)c1C(=O)NC1CC1 (stereo not drawn) [compound 148, N-cyclopropyl-2-(difluoromethoxy)-4-[7-[(1-isopropyl-2-piperidyl)methoxy]imidazo [1,2-a]pyridin-3-yl]-6-methoxy-benzamide]",0.01 to 10,0.01 to 10,100 to 500
"COc1cc(-c2cnc3cc(OCCN4CCOCC4(C)C)ccn23)cc(OC(F)F)c1C(=O)NC1CC1 [compound 192, N-cyclopropyl-2-(difluoromethoxy)-4-[7-[2-(3,3-dimethylmorpholin-4-yl)ethoxy]imidazo[1,2-a]pyridin-3-yl]-6-methoxy-benzamide]",0.01 to 10,0.01 to 10,10 to 100
COc1cc(-c2cnc3cc(OCCNCCO)ccn23)cc(OC(F)F)c1C(=O)NC1CC1 [compound 114],0.01 to 10,0.01 to 10,10 to 100
"COc1cc(-c2cnc3cc(OCCN4CCOC(C)C4)ccn23)cc(OC(F)F)c1C(=O)NC1CC1 (stereo not drawn) [compound 214, N-cyclopropyl-2-(difluoromethoxy)-6-methoxy-4-[7-[2-(2-methylmorpholin-4-yl)ethoxy]imidazo[1,2-a]pyridin-3-yl] benzamide]",0.01 to 10,0.01 to 10,10 to 100
"COc1cc(-c2cnc3cc(OCCCN4CCn5ncnc5C4)ccn23)cc(OC(F)F)c1C(=O)NC1CC1 [compound 313, N-cyclopropyl-2-(difluoromethoxy)-4-[7-[3-(6,8-dihydro-5H-[1,2,4]triazolo[1,5-a]pyrazin-7-yl)propoxy]imidazo[1,2-a]pyridin-3-yl]-6-methoxy-benzamide]",0.01 to 10,0.01 to 10,10 to 100
"CNC1CC(Oc2ccn3c(-c4cc(OC)c(C(=O)NC5CC5)c(OC(F)F)c4)cnc3c2)C1 (stereo not drawn) [compound 161, N-cyclopropyl-2-(difluoromethoxy)-6-methoxy-4-[7-[3-(methylamino)cyclobutoxy]imidazo[1,2-a]pyridin-3-yl]benzamide]",0.01 to 10,0.01 to 10,10 to 100
"COc1cc(-c2cnc3cc(OCCNc4ccccn4)ccn23)cc(OC(F)F)c1C(=O)NC1CC1 [compound 367, N-cyclopropyl-2-(difluoromethoxy)-6-methoxy-4-[7-[2-(2-pyridylamino)ethoxy]imidazo[1,2-a]pyridin-3-yl]benzamide]",0.01 to 10,0.01 to 10,0.01 to 10
"COc1cc(-c2cnc3cc(OCC(N)C(C)C)ccn23)cc(OC(F)F)c1C(=O)NC1CC1 (stereo not drawn) [compound 121, 4-[7-(2-amino-3-methyl-butoxy)imidazo[1,2-a]pyridin-3-yl]-N-cyclopropyl-2-(difluoromethoxy)-6-methoxy-benzamide]",0.01 to 10,0.01 to 10,10 to 100
"COc1cc(-c2cnc3cc(OCCN4CCOCC4C#N)ccn23)cc(OC(F)F)c1C(=O)NC1CC1 (stereo not drawn) [compound 178, 4-[7-[2-(3-cyanomorpholin-4-yl)ethoxy]imidazo[1,2-a]pyridin-3-yl]-N-cyclopropyl-2-(difluoromethoxy)-6-methoxy-benzamide]",0.01 to 10,0.01 to 10,10 to 100
